Test: Ex vivo antiprion activity against sheep 127S scrapie prion protein infected in mouse MovS6 cells assessed as PK digestion resistant-PrPSc accumulation after 6 days by immunoblot analysis
Format: cell-based
Conditions: Ovis aries, MovS6, 144 h

Row | Compound | IC50 [µM]
1 | [N-]=[N+]=Nc1ccc2c(c1)c(N)nc1ccccc12 | 10
2 | Nc1nc2ccccc2c2c1CCCC2 | < 5
3 | Nc1nc2ccccc2c2c1CC=CC2 | 1.8
4 | Nc1cccc2c1c(N)nc1ccccc12 | 30
5 | COc1cc(OC)c2nc(N)c3ccccc3c2c1 | < 1.8
6 | Nc1nc2ccccc2c2cccc(F)c12 | > 20
7 | Nc1nc2ccccc2c2ccccc12 | < 5
8 | Nc1nc2ccccc2c2ccc([N+](=O)[O-])cc12 | 20
9 | Nc1nc2ccccc2c2cc(F)ccc12 | 5
10 | Nc1nc2ccccc2c2ccc(C(F)(F)F)cc12 | 10
11 | Nc1nc2ccccc2c2ccc(F)cc12 | 15
12 | Nc1nc2ccccc2c2cc([N+](=O)[O-])ccc12 | < 5
